The subject of one series is MDA435/LCC6 cells. Kind of series: Sulforhodamine B cytotoxicity assay, parental cells. The format is cell-based. The note with it: Homo sapiens. On the technique in general: Sulforhodamine B stains cellular protein and so reports cell mass.
A further series concerns MDA435/LCC6 MDR1 cells. Kind of series: Sulforhodamine B cytotoxicity / MDR reversal assay, ABCB1-transfected cells. In kind it is cell-based, human. The note with it: for IC50: Homo sapiens.
Series [1] can be described thus: Pharmacokinetic study of paclitaxel with oral type I POPs. In kind it is in vivo, Sprague–Dawley rats.
[2] abbreviates: compound at 0.4 μmol/L, MDA435/LCC6 MDR1.
The mark [3] stands for this setting: Sprague-Dawley, rat, plasma, iv, 6 mg/kg.

The record followed here is paper PMC8343194 (Acta Pharmaceutica Sinica. B, 2021).

Usually IC50 stands for the concentration that inhibits the measured activity by half. Broadly, the half-life is the time in which the quantity being followed falls by half. The low end stands for rapid decline, the high end for slow decline.

Each structure is given as a SMILES string. Like-named read-outs stand apart in the source and are kept apart here.

As for `COc1cccc2c1C(=O)c1c(O)c3c(c(O)c1C2=O)C[C@@](O)(C(=O)CO)C[C@@H]3O[C@H]1C[C@H](N)[C@H](O)[C@H](C)O1` [Doxorubicin, doxorubicin], the concentration for half-maximal inhibition (IC50) was 76 ± 8 nM in the series with MDA435/LCC6 cells (MDA-435/LCC6, read-out: IC50 of doxorubicin) and 695 ± 40 nM in the series with MDA435/LCC6 MDR1 cells (read-out: IC50 of doxorubicin).

On to `C/C=C/C[C@@H](C)C(=O)[C@H]1C(=O)N[C@@H](C(C)C)C(=O)N(C)CC(=O)N(C)[C@@H](CC(C)C)C(=O)N[C@@H](C(C)C)C(=O)N(C)[C@@H](CC(C)C)C(=O)N[C@@H](C)C(=O)N[C@H](C)C(=O)N(C)[C@@H](CC(C)C)C(=O)N(C)[C@@H](CC(C)C)C(=O)N(C)[C@@H](C(C)C)C(=O)N1C` [PSC833, valspodar], for which, in the series on MDA435/LCC6 MDR1 cells (setting [2]), the “Fold change of doxorubicin IC50 (alone/combination)” value came out at 11 and the “Fold change of paclitaxel IC50 (alone/combination)” value was 59.

Regarding `CC(=O)O[C@H]1C(=O)[C@@]2(C)[C@H]([C@H](OC(=O)c3ccccc3)[C@]3(O)C[C@H](OC(=O)[C@H](O)[C@@H](NC(=O)c4ccccc4)c4ccccc4)C(C)=C1C3(C)C)[C@]1(OC(C)=O)CO[C@@H]1C[C@@H]2O` [Paclitaxel, paclitaxel], the half-maximal inhibitory concentration (IC50) in the series on MDA435/LCC6 cells (MDA-435/LCC6, read-out: IC50 of paclitaxel) turned out to be 1.36 ± 0.14 nM; in the series with MDA435/LCC6 MDR1 cells (read-out: IC50 of paclitaxel), 120 ± 9.44 nM. In addition, the “behavior and body weight of rats” value in series [1] (6 consecutive days of paclitaxel alone or with type I POPs mixture) is “no abnormality in behavior and no significant weight losses”. Also, the “brain accumulation of paclitaxel” value in series [1] (24 h after last dose, 6 consecutive days) is given as “no brain accumulation of paclitaxel”. Besides, the half-life in series [1] (Sprague-Dawley, rat, plasma, intravenous) is 4.2 ± 0.3 h; in series [1] (setting [3]), 3.2 ± 0.7 h. In addition, in series [1] (setting [3]), the clearance was 91.7 mL/min/kg. For the same compound, in series [1] (paclitaxel iv 6 mg/kg/day ± type I POPs po 50 mg/kg/day for 6 consecutive days), the “Ctrough of paclitaxel after the last dose” value was 15.8 ± 6.6 nM.
